Publication PMC12728616, “Regioselective Glycosylation of Fluorine-18-Labeled Sorbitol for Enhanced Bacterial Detection In Vivo Using PET” (JACS Au, 2025)

Legend:
[1] = system: K. pneumoniae; assay: In vitro uptake of 18F-tracers by bacteria; format: cell-based, Klebsiella pneumoniae
Method: (§1) In vitro evaluation of ^18F-tracers was conducted according to our established procedure. Briefly, bacteria were incubated overnight at 37 °C, subcultured into a fresh medium at an initial OD600 of 0.05, and then allowed to reach the mid log phase (OD600 ∼ 0.4). The cultures were subsequently incubated with ^18F-tracers (final concentration: 0.1 MBq/mL) at 37 °C for 90 min. Subsequently, 300 μL aliquots of these cultures were centrifuged at 13,200 rpm for 6 min. The resulting pellets were washed with 300 μL of phosphate-buffered saline (PBS). The radioactivity of the pellets and supernatants was measured using a gamma counter. Uptake values were normalized to colony-forming units (CFUs).

[2] = In vitro stability in serum; format: in vitro ADME, mouse; conditions: up to 120 min at 37 °C
[3] = In vitro stability in serum; format: in vitro ADME, human; conditions: up to 120 min at 37 °C
[4] = Dynamic PET/CT and ex vivo biodistribution in uninfected mice; conditions: for ex vivo residual activity in organs versus [18F]FDS: heart, lung, stomach, liver, intestine, kidney, muscle, after 90 min PET/CT; for peak uptake (Cmax) in bladder / peak uptake (Cmax) in kidneys / peak uptake (Cmax) in liver: dynamic PET 90 min; for elimination half-life (T1/2β) / plasma distribution half-life (T1/2α): blood pool TAC, two-compartment fit
Method: To assess the effect of [^18F]-FDS glycosylation on tissue uptake in vivo, we performed dynamic PET/CT scans for 90 min after the intravenous injection of [^18F]-FNT, [^18F]-FMT, and [^18F]-FDS in uninfected mice, followed by ex vivo analysis.
μPET/CT imaging was conducted using a nanoScan μPET/CT instrument (PET123S/CT1512, Mediso). Mice were anesthetized with 2% isoflurane/oxygen for intravenous administration of ^18F-tracers (∼5 MBq in 150 μL) via tail vein and maintained during data acquisition. PET data of uninfected mice were acquired in the list mode for 90 min, starting immediately after ^18F-tracer administration, followed by a CT scan. The PET data were reconstructed into three-dimensional volumes and coregistered with CT images using manufacturer-provided software in 53 dynamic frames (15 × 2 s, 6 × 5 s, 6 × 10 s, 4 × 30 s, 6 × 30 s, and 16 × 300 s). PET data of infected mice were acquired for 20 min, starting at 70 min postinjection of ^18F-tracer (mid time 80 min), followed by a CT scan. The list mode PET data were reconstructed into three-dimensional volumes in a single static frame. All PET scans were corrected for ^18F decay, dead time, and random coincidences and reconstructed into a 160 × 160 × 184 matrix with voxel size 0.8 mm using a three-dimensional ordered subject expectation maximization (OSEM) algorithm (40 iterations, 1 subset). Both attenuation and scatter corrections were applied to PET reconstructions using the coregistered CT. ROIs were drawn manually around the brain, lungs, liver, kidney, and urinary bladder using Amide software to generate image-derived TACs. For the estimation of blood pool radioactivity over time, ROIs were drawn on the left atrium. To estimate the plasma half-life of tracers, the TAC of the blood pool was fitted to a two-compartment model using a biexponential decay function: C t(t) = Ae ^–αt + Be ^ ‑βt , where C t(t) is the tracer concentration (% IDcc^–1) at time (t), A and B are the intercepts, and α and β are the distribution and elimination rate constants, respectively. , Quantitative uptake values are expressed as % IDcc^–1, representing the percent of the total injected dose per cubic centimeter. For the S. aureus myositis model, identical volume ROIs were drawn corresponding to the peak uptake of [^18F]-FNT at the live S. aureus inoculated site and heat-killed S. aureus inoculated site, respectively.

[5] = system: S. aureus (ATCC 29213); assay: In vitro uptake of 18F-tracers by bacteria; format: cell-based, Staphylococcus aureus
Method: as §1

[6] = system: Enterococcus faecalis; assay: In vitro uptake of 18F-tracers by bacteria; format: cell-based; conditions: E. faecalis; 37 °C, 90 min
Method: as §1

[7] = system: Listeria monocytogenes; assay: In vitro uptake of 18F-tracers by bacteria; format: cell-based; conditions: L. monocytogenes; 37 °C, 90 min
Method: as §1

[8] = system: Staphylococcus epidermidis; assay: In vitro uptake of 18F-tracers by bacteria; format: cell-based; conditions: S. epidermidis; 37 °C, 90 min
Method: as §1

[9] = system: Streptococcus agalactiae; assay: In vitro uptake of 18F-tracers by bacteria; format: cell-based; conditions: S. agalactiae; 37 °C, 90 min
Method: as §1

[10] = system: Streptococcus pyogenes; assay: In vitro uptake of 18F-tracers by bacteria; format: cell-based; conditions: S. pyogenes; 37 °C, 90 min
Method: as §1

[11] = system: methicillin-resistant S. aureus (MRSA) clinical isolates; assay: In vitro uptake in clinical isolates; format: cell-based, Staphylococcus aureus; conditions: P < 0.0001
Method: as §1

[12] = system: methicillin-sensitive S. aureus (MSSA) clinical isolates; assay: In vitro uptake in clinical isolates; format: cell-based, Staphylococcus aureus; conditions: vs S. aureus ATCC 29213; P < 0.0001
Method: as §1

[13] = Human radiation dosimetry extrapolated from murine biodistribution; format: in vivo
Method: A dosimetry study was carried out in female CBA/J mice (n = 4, 9–11 weeks). Human organ and whole-body effective doses were extrapolated from the mice biodistribution data according to our previous report. For each organ, absorbed and equivalent doses (mGy/MBq or mSv/MBq), as well as whole-body effective doses (mSv/MBq), were calculated from murine data. Dose estimations were performed with OLINDA software (v1.1 and 2.0 with ICRP 60 and 103 tissue weighting factors). ,

[14] = Radio-HPLC analysis of urine samples (metabolic stability in vivo); conditions: urine from healthy mice 90 min after i.v. administration
Method: 7 Dosimetry extrapolated to humans and metabolic stability of [^18F]-FNT. (A) Estimated absorbed dose (mGy/MBq) extrapolated from murine biodistribution data using ICRP103 (adult female, 60 kg). (B–D) Representative radio-HPLC profiles of [^18F]-FDS (B), [^18F]-FNT (C), and urine samples collected from healthy mice 90 min following [^18F]-FNT administration via i.v. (D).

OC[C@@H](O)[C@@H](O[C@H]1O[C@H](CO)[C@@H](O)[C@H](O)[C@H]1O)[C@H](O)[C@@H]([18F])CO [[18F]FMT, 2-deoxy-2-[18F]fluoro-D-maltitol]
in vitro uptake [1]: considerable uptake | in vitro stability in mouse serum [2]: intact | in vitro stability in human serum [3]: intact | ex vivo residual activity in organs versus [18F]FDS [4]: significantly lower residual activity | peak uptake (Cmax) in bladder ([4]; uninfected mice, i.v.): 562.7 ± 31.3 % IDcc^–1 | peak uptake (Cmax) in kidneys ([4]; uninfected mice, i.v.): 102.3 ± 8.4 % IDcc^–1 | peak uptake (Cmax) in liver ([4]; uninfected mice, i.v.): 17.7 ± 0.9 % IDcc^–1 | elimination half-life (T1/2β) ([4]; uninfected mice): 12.70 min | plasma distribution half-life (T1/2α) ([4]; uninfected mice): 0.55 min

OC[C@@H](O)[C@@H](O)[C@H](O[C@H]1O[C@H](CO)[C@@H](O)[C@H](O)[C@H]1O)[C@@H]([18F])CO [[18F]FNT, 2-deoxy-2-[18F]fluoro-D-nigeritol]
uptake in the presence of nonradioactive [19F]FNT (blocking) ([5]; S. aureus ATCC 29213, 1 mM [19F]FNT, P < 0.0001): significantly reduced | in vitro uptake ([5]; S. aureus, 37 °C, 90 min): moderate uptake | uptake in heat-killed S. aureus ([5]; heat-killed bacteria, P < 0.0001): no uptake | in vitro uptake [6]: moderate uptake | in vitro uptake [7]: low | in vitro uptake [8]: moderate uptake | in vitro uptake [9]: low | in vitro uptake [10]: low | in vitro uptake [1]: considerable uptake | higher uptake in clinically isolated MRSA compared with [18F]FMT ([11]; in vitro): approximately 4 fold | uptake in clinical MRSA isolates compared to the reference MSSA strain ([11]; vs S. aureus ATCC 29213): higher uptake | uptake in clinical MSSA isolates compared to the reference MSSA strain [12]: higher uptake | in vitro stability in mouse serum [2]: intact | in vitro stability in human serum [3]: intact | ex vivo residual activity in organs versus [18F]FDS [4]: significantly lower residual activity | area under the curve (AUC0→90min) in bladder ([4]; uninfected mice, i.v.): 44418.3 ± 950.9 % IDcc^–1·min | area under the curve (AUC0→90min) in liver ([4]; uninfected mice, i.v.): 105.7 ± 4.0 % IDcc^–1·min | peak uptake (Cmax) in bladder ([4]; uninfected mice, i.v.): 606.8 ± 9.0 % IDcc^–1 | peak uptake (Cmax) in kidneys ([4]; uninfected mice, i.v.): 104.5 ± 14.2 % IDcc^–1 | peak uptake (Cmax) in liver ([4]; uninfected mice, i.v.): 19.2 ± 0.9 % IDcc^–1 | elimination half-life (T1/2β) ([4]; uninfected mice): 14.07 min | plasma distribution half-life (T1/2α) ([4]; uninfected mice): 0.52 min | calculated human effective dose ([13]; ICRP 60): 0.0163 ± 0.0012 mSv/MBq | kidneys dose ([13]; ICRP 60 model): 0.0753 ± 0.0307 mSv/MBq | urinary bladder dose ([13]; ICRP 60 model): 0.1783 ± 0.0314 mSv/MBq | calculated human effective dose ([13]; ICRP 103): 0.0126 ± 0.0005 mSv/MBq | kidneys dose ([13]; ICRP 103 model): 0.0751 ± 0.0307 mSv/MBq | urinary bladder dose ([13]; ICRP 103 model): 0.1518 ± 0.0262 mSv/MBq | estimated organ-absorbed doses overall ([13]; overall, called low): > 0.02 mSv/MBq | metabolic stability in vivo (urine radio-HPLC) [14]: remained intact, with no degradation observed
